Results from patent US5126227A, “High contrast photographic elements containing ballasted hydrophobic isothioureas” (priority 1990, dated 1992).

Assay: Solubility stated in words
Format: physicochemical

solubility (in words) | SMILES
highly soluble | N=C(N)SCCS(=O)(=O)O [Comparative test E]
less soluble | N=C(N)SCCCS(=O)(=O)O [Comparative test F]
less soluble | N=C(N)SCCCCS(=O)(=O)O [Comparative test G]
less soluble | CC(CCSC(=N)N)S(=O)(=O)O (stereo not shown) [Comparative test H]
